Our source for the IC50 values is patent publication US20260234136A1, “ISOXAZOLIDINES AS RIPK1 INHIBITORS AND USE THEREOF” (GENZYME CORPORATION, priority 2023, published 2026).

Molecules are shown by their SMILES.

The experiment has as its system U937 cells. The experiment in a line: Cellular assay in U937 cells to measure the activity of RIPK1-inhibitors on cell death (necroptosis). In kind it is cell-based. Particulars: Homo sapiens, U-937, 50 μM zVAD.fmk and 100 ng/ml recombinant human TNFα, overnight (18 to 24 hrs), MTS readout. The procedure:
Absorbance of formazan was read at 490 nm. The inhibitory activity of the test compound was quantified in a concentration response curve (CRC) experiment.
Compounds were obtained as 10 mM stock solutions and were diluted 1 to 10 volumes with DMSO to yield a 1 mM solution. From this solution 2 μl were diluted with 998 μl growth medium.
U937 cells were cultured in RPMI1640 Glutamax and 10% heat inactivated FBS. […] 50 μl of compound dilutions, as described in Cellular assay in U937 cells, were added and the cell suspension incubated overnight (18 to 24 hrs) at 37° C., 5% CO2 in a humidified atmosphere (95% rH).
CellTiter 96 Aqueous reagent was mixed (100 μl PMS (phenazine methosulfate) solution/2 ml MTS (3-(4,5-[…])-5-(3-carboxymethoxyphenyl)-2-(4-sulfophenyl)-2H-tetrazolium, inner salt) solution) and 20 μl were added per well. After 4 hrs incubation at 37° C. (5% CO2 95% rH) optical density was measured at 490 nm on a microplate reader (Tecan Infinite M1000).
The % inhibition is expressed as percentage of the maximal inhibition value obtained in the absence of TNFα/zVAD.fmc.

As a reminder, the IC50 is the midpoint of a concentration-inhibition curve. For `O=C(C1CCN(c2ncc(F)c(-n3cccn3)n2)CC1)N1OCC[C@H]1c1cnccn1` [Example 32, (S)-(1-(5-fluoro-4-(1H-pyrazol-1-yl)pyrimidin-2-yl)piperidin-4-yl)(3-(pyrazin-2-yl)isoxazolidin-2-yl)methanone], the IC50 turned out to be 0.001 µM.

For `Cc1ccc([C@@H]2CCON2C(=O)C2CCN(c3ncnc(-n4ccnc4C)n3)CC2)cn1` [Example 35, [1-[4-(2-methylimidazol-1-yl)-1,3,5-triazin-2-yl]piperidin-4-yl]-[(3S)-3-(6-methylpyridin-3-yl)-1,2-oxazolidin-2-yl]methanone], the IC50 is 0.002 µM.

For `Cc1cncc([C@@H]2CCON2C(=O)C2CCN(c3nccc(N4CCOC4=O)n3)CC2)c1` [Example 36, 3-[2-[4-[(3S)-3-(5-methyl-3-pyridyl)isoxazolidine-2-carbonyl]-1-piperidyl]pyrimidin-4-yl]oxazolidin-2-one], the IC50 was 0.025 µM.

Regarding `Cn1nccc1-c1cc(N2CC[C@@H](C(=O)N3OCC[C@H]3c3cnccn3)C3(CC3)C2)ncn1` [Example 39, [(8R)-5-[6-(2-methylpyrazol-3-yl)pyrimidin-4-yl]-5-azaspiro[2.5]octan-8-yl]-[(3S)-3-pyrazin-2-yl-1,2-oxazolidin-2-yl]methanone], the IC50 was 0.02 µM.

Turning to `Cc1nc([C@@H]2CCON2C(=O)[C@@H]2CCN(c3cc(-c4ncnn4C)ncn3)CC23CC3)cs1` [Example 41, [(3S)-3-(2-methyl-1,3-thiazol-4-yl)-1,2-oxazolidin-2-yl]-[(8R)-5-[6-(2-methyl-1,2,4-triazol-3-yl)pyrimidin-4-yl]-5-azaspiro[2.5]octan-8-yl]methanone], the IC50 was 0.044 µM.

As for `Cc1ncc([C@@H]2CCON2C(=O)C2CCN(c3cc(-c4ncnn4C)ncn3)CC2)cc1F` [Example 49, [(3S)-3-(5-fluoro-6-methylpyridin-3-yl)-1,2-oxazolidin-2-yl]-[1-[6-(2-methyl-1,2,4-triazol-3-yl)pyrimidin-4-yl]piperidin-4-yl]methanone], the IC50 came to 0.015 µM.

For `Cc1cncc([C@@H]2CCON2C(=O)C2CCN(c3nccc(N4CCC5(CC5)C4=O)n3)CC2)c1` [Example 51, 5-[2-[4-[(3S)-3-(5-methylpyridin-3-yl)-1,2-oxazolidine-2-carbonyl]piperidin-1-yl]pyrimidin-4-yl]-5-azaspiro[2.4]heptan-4-one], the IC50 came out at 0.026 µM.

For the compound `Cc1nc([C@@H]2CCON2C(=O)C2CCN(c3nccc(N4CCC5(CC5)C4=O)n3)CC2)co1` [Example 54, 5-[2-[4-[(3S)-3-(2-methyl-1,3-oxazol-4-yl)-1,2-oxazolidine-2-carbonyl]piperidin-1-yl]pyrimidin-4-yl]-5-azaspiro[2.4]heptan-4-one], the IC50 was 0.051 µM.

Consider `Cc1cnc([C@@H]2CCON2C(=O)C2CCN(c3nccc(N4CCCC4=O)n3)CC2)cn1` [Example 55, 1-[2-[4-[(3S)-3-(5-methylpyrazin-2-yl)-1,2-oxazolidine-2-carbonyl]piperidin-1-yl]pyrimidin-4-yl]pyrrolidin-2-one], for which the IC50 came out at 0.078 µM.

As to `O=C(C1CCN(c2nccc(N3CCC(F)(F)C3=O)n2)CC1)N1OCC[C@H]1c1cnccn1` [Example 58, 3,3-difluoro-1-[2-[4-[(3S)-3-pyrazin-2-yl-1,2-oxazolidine-2-carbonyl]piperidin-1-yl]pyrimidin-4-yl]pyrrolidin-2-one], the IC50 is 0.065 µM.

In the case of `Cc1ncc([C@@H]2CCON2C(=O)C2CCN(c3nccc(N4CCC(C)(C)C4=O)n3)CC2)cc1F` [Example 60, 1-[2-[4-[(3S)-3-(5-fluoro-6-methylpyridin-3-yl)-1,2-oxazolidine-2-carbonyl]piperidin-1-yl]pyrimidin-4-yl]-3,3-dimethylpyrrolidin-2-one], the IC50 is 0.506 µM.

On to `Cc1ncc([C@@H]2CCON2C(=O)C2CCN(c3nccc(N4CCC5(CC5)C4=O)n3)CC2)cc1F` [Example 61, 5-[2-[4-[(3S)-3-(5-fluoro-6-methylpyridin-3-yl)-1,2-oxazolidine-2-carbonyl]piperidin-1-yl]pyrimidin-4-yl]-5-azaspiro[2.4]heptan-4-one], for which the IC50 amounted to 0.032 µM.
